From PubChem BioAssay AID248 (DTP/NCI, 2004) come the findings set out here.

Molecules are shown by their SMILES. Values joined by “and” are separate entries in the source; they are usually repeats but may differ in a detail not shown here. Equal values may be shown once. Inconclusive results and toxic doses are left out.

The test relates to L1210 leukemia ip in BDF1 mice, survival T/C. In words: NCI In Vivo Anticancer Drug Screen. Data for tumor model L1210 Leukemia (intraperitoneal) in B6D2F1 (BDF1) mice. To be noted: endpoint: mean survival time, higher = longer survival. In a few lines: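 Survival endpoint. Drug-treated group vs vehicle group, expressed as T divided by C. Tumor passaged by transplantation.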
Setting [1] is: dose: 100.0 mg/kg/injection, schedule: Q01DX009 (ip), vehicle: Klucel (hydroxypropylcellulose) (HPC).
Setting [2] is: dose: 200.0 mg/kg/injection, schedule: Q01DX009 (ip), vehicle: Klucel (hydroxypropylcellulose) (HPC).
The mark [3] stands for this setting: dose: 400.0 mg/kg/injection, schedule: Q01DX009 (ip), vehicle: Klucel (hydroxypropylcellulose) (HPC).

As to `O=C1C(F)=C(N2CC2)C(=O)C(N2CCOCC2)=C1N1CC1`, the T/C is 94 % of control and 108 % of control (dose: 0.39 mg/kg/injection, schedule: Q04DX003 (ip), vehicle: saline); 114 % of control and 122 % of control (dose: 0.75 mg/kg/injection, schedule: Q01DX009 (ip), vehicle: saline); 100 % of control (dose: 0.78 mg/kg/injection, schedule: Q04DX003 (ip), vehicle: saline); 111 % of control (dose: 1.5 mg/kg/injection, schedule: Q01DX009 (ip), vehicle: saline); 102 % of control and 112 % of control (dose: 1.56 mg/kg/injection, schedule: Q04DX003 (ip), vehicle: saline); 110 % of control and 112 % of control (dose: 3.0 mg/kg/injection, schedule: Q01DX009 (ip), vehicle: saline). For the same compound, the T/C was 91 % of control (dose: 3.12 mg/kg/injection, schedule: Q01DX001 (ip), vehicle: saline); 105 % of control and 107 % of control (dose: 3.12 mg/kg/injection, schedule: Q04DX003 (ip), vehicle: saline); 111 % of control (dose: 6.0 mg/kg/injection, schedule: Q01DX009 (ip), vehicle: saline); 104 % of control (dose: 6.25 mg/kg/injection, schedule: Q01DX001 (ip), vehicle: saline); 105 % of control and 121 % of control (dose: 6.25 mg/kg/injection, schedule: Q04DX003 (ip), vehicle: saline); 92 % of control (dose: 12.5 mg/kg/injection, schedule: Q01DX001 (ip), vehicle: saline).

`O=C1c2ccccc2C2(c3ccccc31)C(C(=O)c1ccccc1)C2C(=O)c1ccccc1` (configuration not stated): the T/C is 94 % of control (dose: 75.0 mg/kg/injection, schedule: Q01DX001 (ip), vehicle: carboxymethylcellulose (CMC)); 96 % of control (dose: 150.0 mg/kg/injection, schedule: Q01DX001 (ip), vehicle: carboxymethylcellulose (CMC)); 91 % of control (dose: 300.0 mg/kg/injection, schedule: Q01DX001 (ip), vehicle: carboxymethylcellulose (CMC)).

Regarding `NC1(CSS(=O)(=O)O)CCN1` (configuration not stated), the T/C by setting is: (dose: 10.0 mg/kg/injection, schedule: Q04DX002 (ip), vehicle: saline) 106 % of control; (dose: 20.0 mg/kg/injection, schedule: Q04DX002 (ip), vehicle: saline) 98 % of control; (dose: 40.0 mg/kg/injection, schedule: Q04DX002 (ip), vehicle: saline) 109 % of control.

For `O=NN(CCF)C(=O)NC1CCSc2ccccc21` (configuration not stated), the T/C runs as follows: (dose: 6.0 mg/kg/injection, schedule: Q01DX001 (ip), vehicle: other) 109 % of control; (dose: 9.0 mg/kg/injection, schedule: Q01DX001 (ip), vehicle: other) 120 % of control; (dose: 20.0 mg/kg/injection, schedule: Q01DX001 (ip), vehicle: other) 161 % of control; (dose: 30.0 mg/kg/injection, schedule: Q01DX001 (ip), vehicle: other) 289 % of control.

As for `Cc1ccnc2c([N+](=O)[O-])cccc12`, the T/C reads like this: (dose: 75.0 mg/kg/injection, schedule: Q01DX001 (ip), vehicle: other) 102 % of control; (dose: 100.0 mg/kg/injection, schedule: Q04DX002 (ip), vehicle: saline with Tween-80) 103 % of control; (dose: 150.0 mg/kg/injection, schedule: Q01DX001 (ip), vehicle: other) 102 % of control; (dose: 200.0 mg/kg/injection, schedule: Q04DX002 (ip), vehicle: saline with Tween-80) 109 % of control; (dose: 300.0 mg/kg/injection, schedule: Q01DX001 (ip), vehicle: other) 103 % of control.

`COc1ccc(Cl)cc1NC(=O)c1ccccc1Cl`: the T/C is 95 % of control under setting [1], 102 % of control under setting [2] and 101 % of control under setting [3].

In the case of `C[N+](C)(C)Cc1ccccc1C=C(c1ccccc1)c1ccccc1`, the T/C by setting is: (dose: 12.5 mg/kg/injection, schedule: Q01DX009 (ip), vehicle: Klucel (hydroxypropylcellulose) (HPC)) 98 % of control; (dose: 25.0 mg/kg/injection, schedule: Q01DX009 (ip), vehicle: Klucel (hydroxypropylcellulose) (HPC)) 104 % of control; (dose: 25.0 mg/kg/injection, schedule: Q04DX003 (ip), vehicle: Klucel (hydroxypropylcellulose) (HPC)) 101 % of control; (dose: 50.0 mg/kg/injection, schedule: Q01DX009 (ip), vehicle: Klucel (hydroxypropylcellulose) (HPC)) 98 % of control; (dose: 50.0 mg/kg/injection, schedule: Q04DX003 (ip), vehicle: Klucel (hydroxypropylcellulose) (HPC)) 88 % of control.

As to `S=c1nc[nH]c2nc(N=Nc3cc(Cl)ccc3Cl)[nH]c12`, the T/C is, setting by setting: (dose: 100.0 mg/kg/injection, schedule: Q01DX001 (ip), vehicle: saline) 101 % of control; (dose: 200.0 mg/kg/injection, schedule: Q01DX001 (ip), vehicle: saline) 97 % of control.

Take `CCc1c(C#N)oc2ccc(O)cc12`: the T/C was 96 % of control under setting [1]; 95 % of control (dose: 100.0 mg/kg/injection, schedule: Q04DX002 (ip), vehicle: Klucel (hydroxypropylcellulose) (HPC)); 91 % of control under setting [2]; 101 % of control (dose: 200.0 mg/kg/injection, schedule: Q04DX002 (ip), vehicle: Klucel (hydroxypropylcellulose) (HPC)); 95 % of control (dose: 400.0 mg/kg/injection, schedule: Q04DX002 (ip), vehicle: Klucel (hydroxypropylcellulose) (HPC)).

With `O=C(CCC[n+]1ccccc1)CC(O)(C(F)(F)F)C(F)(F)F`, the T/C is 105 % of control (dose: 50.0 mg/kg/injection, schedule: Q01DX009 (ip), vehicle: saline); 103 % of control (dose: 100.0 mg/kg/injection, schedule: Q01DX009 (ip), vehicle: saline); 103 % of control (dose: 100.0 mg/kg/injection, schedule: Q04DX003 (ip), vehicle: saline); 100 % of control (dose: 200.0 mg/kg/injection, schedule: Q01DX009 (ip), vehicle: saline); 106 % of control (dose: 200.0 mg/kg/injection, schedule: Q04DX003 (ip), vehicle: saline).

In the case of `Cc1c(C(N)=O)sc2ccccc12`, the T/C was 89 % of control (dose: 100.0 mg/kg/injection, schedule: Q01DX001 (ip), vehicle: carboxymethylcellulose (CMC)); 107 % of control (dose: 200.0 mg/kg/injection, schedule: Q01DX001 (ip), vehicle: carboxymethylcellulose (CMC)); 94 % of control (dose: 400.0 mg/kg/injection, schedule: Q01DX001 (ip), vehicle: carboxymethylcellulose (CMC)).

With `CCOC(=O)C(C#N)C(C)CC#N` (configuration not stated), the T/C was 119 % of control (dose: 100.0 mg/kg/injection, schedule: Q01DX009 (ip), vehicle: saline with Tween-80); 117 % of control (dose: 200.0 mg/kg/injection, schedule: Q01DX009 (ip), vehicle: saline with Tween-80); 108 % of control (dose: 400.0 mg/kg/injection, schedule: Q01DX009 (ip), vehicle: saline with Tween-80).

For `O=NN(CCCl)C(=O)NC1C2CC3CC(C2)CC1C3` (configuration not stated), the T/C is 110 % of control (dose: 12.0 mg/kg/injection, schedule: Q01DX001 (ip), vehicle: other); 114 % of control (dose: 18.0 mg/kg/injection, schedule: Q01DX001 (ip), vehicle: other); 123 % of control (dose: 26.0 mg/kg/injection, schedule: Q01DX001 (ip), vehicle: other); 163 % of control (dose: 40.0 mg/kg/injection, schedule: Q01DX001 (ip), vehicle: other); 244 % of control (dose: 60.0 mg/kg/injection, schedule: Q01DX001 (ip), vehicle: other); 323 % of control (dose: 93.0 mg/kg/injection, schedule: Q01DX001 (ip), vehicle: other). In addition, under “dose: 187.0 mg/kg/injection, schedule: Q01DX001 (ip), vehicle: other”, the T/C was 340 % of control.

Regarding `Nc1ccc(Cc2cc(=O)[nH]c(=O)[nH]2)cc1[N+](=O)[O-]`, the T/C was 98 % of control (dose: 25.0 mg/kg/injection, schedule: Q01DX001 (ip), vehicle: Klucel (hydroxypropylcellulose) (HPC)); 107 % of control (dose: 50.0 mg/kg/injection, schedule: Q01DX001 (ip), vehicle: Klucel (hydroxypropylcellulose) (HPC)); 88 % of control (dose: 100.0 mg/kg/injection, schedule: Q01DX001 (ip), vehicle: Klucel (hydroxypropylcellulose) (HPC)); 88 % of control (dose: 200.0 mg/kg/injection, schedule: Q01DX001 (ip), vehicle: Klucel (hydroxypropylcellulose) (HPC)).

With `CCOc1ccc(N2CSC(=S)N(c3ccc(OCC)cc3)C2)cc1`, the T/C runs as follows: under setting [1], 96 % of control; (dose: 100.0 mg/kg/injection, schedule: Q04DX003 (ip), vehicle: Klucel (hydroxypropylcellulose) (HPC)) 92 % of control; under setting [2], 99 % of control; (dose: 200.0 mg/kg/injection, schedule: Q04DX003 (ip), vehicle: Klucel (hydroxypropylcellulose) (HPC)) 92 % of control; (dose: 400.0 mg/kg/injection, schedule: Q04DX003 (ip), vehicle: Klucel (hydroxypropylcellulose) (HPC)) 92 % of control.

For `O=C(O)CN1C(=O)c2cccc([N+](=O)[O-])c2C1=O`, the T/C under setting [1] is 100 % of control, the T/C under setting [2] is 100 % of control and the T/C under setting [3] is 101 % of control.
